Test results taken from the supplement of paper PMC5908809.

How the values were obtained:
Assay in all cases: relative IC50 (inflection point of fitted viability curve, relative to fitted max inhibition); higher = less sensitive
Details in all cases: 72 h
[1] = tested on: normal primary NK cells, pool 1 (3 donors), resting (IL-2 0 ng/mL)
Procedure: (§1)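 Drug sensitivity and resistance testing: 5 concentrations over a 10,000-fold range, 72 h at 37 °C, viability by CellTiter-Glo normalised to DMSO and benzethonium chloride controls. IC50 is the inflection point of a logistic fit (min fixed at 0, max fitted), so it is relative to the fitted maximal inhibition. Kept only where fitted max inhibition is at least 50%.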

[2] = tested on: YT (IL-2 2.5 ng/mL)
Procedure: as §1

[3] = tested on: KHYG-1 (IL-2 2.5 ng/mL)
Procedure: as §1

[4] = tested on: IMC-1 (IL-2 20 ng/mL)
Procedure: as §1

[5] = tested on: KAI3 (IL-2 2.5 ng/mL)
Procedure: as §1

[6] = tested on: SNK-6 (IL-2 2.5 ng/mL)
Procedure: as §1

[7] = tested on: NKL (IL-2 2.5 ng/mL)
Procedure: as §1

[8] = tested on: NK-92 (IL-2 2.5 ng/mL)
Procedure: as §1

[9] = tested on: normal primary NK cells, pool 1 (3 donors) (IL-2 2.5 ng/mL)
Procedure: as §1

[10] = tested on: NK-YS (IL-2 2.5 ng/mL)
Procedure: as §1

[11] = tested on: DERL-7 (IL-2 2.5 ng/mL)
Procedure: as §1

[12] = tested on: normal primary NK cells, pool 2 (3 donors) (IL-2 2.5 ng/mL)
Procedure: as §1

[13] = tested on: normal primary NK cells, pool 3 (3 donors) (IL-2 2.5 ng/mL)
Procedure: as §1

Structure (SMILES) | relative IC50 [1] [nM] | relative IC50 [2] [nM] | relative IC50 [3] [nM] | relative IC50 [4] [nM] | relative IC50 [5] [nM] | relative IC50 [6] [nM] | relative IC50 [7] [nM] | relative IC50 [8] [nM] | relative IC50 [9] [nM] | relative IC50 [10] [nM] | relative IC50 [11] [nM] | relative IC50 [12] [nM] | relative IC50 [13] [nM]
O=P1(N(CCCl)CCCl)NCCCO1 (stereo not drawn) [Cyclophosphamide] | 5790 | > 40000 | > 40000 | > 40000 |  |  |  |  |  |  |  |  | 
COCC(=O)NC/C=C/c1ccc2ncnc(Nc3ccc(Oc4ccc(C)nc4)c(C)c3)c2c1 | 834 |  |  | 2920 | 1870 | 3270 | 2070 | 1470 |  |  |  |  | 
N#CC[C@H](C1CCCC1)n1cc(-c2ncnc3[nH]ccc23)cn1 [Ruxolitinib] |  | 142 | 21.9 | 780 | 17.1 | 31.1 | 15.8 | 55.7 | 69 | 85.1 | 45.4 | 43.7 | 80.4
CNC(=O)c1ccc(-c2cnc3ncc(Cc4ccc5ncccc5c4)n3n2)cc1F [NVP-INC280] |  |  |  |  |  |  |  |  | > 1000 |  |  |  | > 1000
CN1CCC(COc2cnc(-c3cccc(Cn4nc(-c5cccc(C#N)c5)ccc4=O)c3)nc2)CC1 |  |  |  | > 1000 | > 1000 |  |  |  |  | > 1000 |  |  | > 1000
Clc1ccc(C(c2ccccc2Cl)C(Cl)Cl)cc1 (stereo not drawn) [Mitotane] |  | > 10000 | > 10000 | > 10000 | > 10000 |  | > 10000 | > 10000 |  | > 10000 |  | > 10000 | 
O=C(Nc1ccc(-c2ccnc(Nc3ccc(N4CCOCC4)cc3)n2)cc1)C1CCCN1 (stereo not drawn) [XL019] | 1380 |  | 2490 | 3200 | 1660 |  | 658 |  | 2220 |  | 1370 | 1510 | 1870
FC(F)c1nc2ccccc2n1-c1nc(N2CCOCC2)nc(N2CCOCC2)n1 [ZSTK474] |  | 262 |  |  | 290 | 832 | 436 | 31.2 |  | 655 | 110 |  | 
CC(=O)O[C@@]12CO[C@@H]1C[C@H](O)[C@@]1(C)C(=O)[C@H](O)C3=C(C)[C@@H](OC(=O)[C@H](O)[C@@H](NC(=O)OC(C)(C)C)c4ccccc4)C[C@@](O)([C@@H](OC(=O)c4ccccc4)[C@H]21)C3(C)C [Docetaxel] |  | 2.24 | 3.9 | 3.14 | 2.14 | 0.8 | 1.84 | 10.9 |  | 2.02 | 3.18 |  | 
Cc1cnc(Nc2ccc(OCCN3CCCC3)cc2)nc1Nc1cccc(S(=O)(=O)NC(C)(C)C)c1 [Fedratinib] |  |  |  | 929 |  |  |  |  |  |  |  | 462 | 479
CN(C)CCOc1ccc(/C(=C(/CCCl)c2ccccc2)c2ccccc2)cc1 [Toremifene] | 2370 |  |  |  | 2030 |  |  | 2190 | 3740 |  | 1090 |  | 
COc1cccc2cc(-c3nc([C@H]4CC[C@H](C(=O)O)CC4)n4ncnc(N)c34)[nH]c12 [OSI-027] |  | 1160 | 1500 |  | 775 | 564 | 342 | 579 |  | 1820 | 1220 |  | 
C[C@]1(c2nc3c(C(N)=O)cccc3[nH]2)CCCN1 [Veliparib] | 3590 |  |  |  |  |  |  |  | 2020 |  |  |  | 
Nc1nc2[nH]cnc2c(=S)[nH]1 [Thioguanine] |  | 383 | 322 | 1300 | 1780 | 938 | 1440 | 742 | 2100 | 296 | 2350 | 1900 | 
O=C(Nc1cccc(Nc2ncc(Br)c(NCCc3cnc[nH]3)n2)c1)N1CCCC1 [BX-912] |  | 1510 | 507 | 735 | 474 | 482 | 1010 | 1170 | 1270 | 1850 | 1060 | 1170 | 1420
CC(=O)O[C@H]1C(=O)[C@@]2(C)[C@H]([C@H](OC(=O)c3ccccc3)[C@]3(O)C[C@H](OC(=O)[C@H](O)[C@@H](NC(=O)c4ccccc4)c4ccccc4)C(C)=C1C3(C)C)[C@]1(OC(C)=O)CO[C@@H]1C[C@@H]2O [Paclitaxel] |  | 5.42 | 6.15 | 3.31 | 2.92 | 3.77 | 4.61 | 22 |  | 4.26 | 3.25 |  | 
Cc1cnc(Nc2ccc(OCCN3CCCC3)cc2)nc1Nc1cccc(S(=O)(=O)NC(C)(C)C)c1 | 715 | 977 | 262 |  | 203 | 876 | 112 | 1330 | 262 | 534 | 233 |  | 
CC[C@@H]1C(=O)N(C)c2cnc(Nc3ccc(C(=O)NC4CCN(C)CC4)cc3OC)nc2N1C1CCCC1 [BI 2536] |  | 26.3 | 22.1 | 14.8 | 8.37 | 4.57 | 9.81 | 11.4 |  | 13.5 | 8.62 | 218 | 
C[C@@H](Nc1cc(F)cc(F)c1)c1cc(C(=O)N(C)C)cc2c(=O)cc(N3CCOCC3)oc12 [AZD-8186] |  |  |  | > 1000 |  |  | > 1000 |  |  |  |  |  | > 1000
CC(C)(O)CC(=O)NCCn1ccc2ncnc(Nc3ccc(Oc4cccc(C(F)(F)F)c4)c(Cl)c3)c21 [TAK-285] |  |  |  | > 2500 |  |  | > 2500 |  |  |  |  | > 2500 | > 2500
CC(=O)Nc1cccc(-n2c(=O)n(C3CC3)c(=O)c3c(Nc4ccc(I)cc4F)n(C)c(=O)c(C)c32)c1 [Trametinib] |  |  | 4.89 | > 250 |  |  | 2.51 | > 250 |  |  |  |  | > 250
COc1cc2/c(=N/c3ccc(Br)cc3F)nc[nH]c2cc1OCC1CCN(C)CC1 [Vandetanib] |  |  |  |  |  |  |  |  |  |  |  |  | > 1000
CCc1cncnc1N1CCN(Cc2nc3ccc(C(F)(F)F)cc3[nH]2)CC1 | 1820 |  |  | 2140 |  |  | 1840 | 1460 | 1790 |  |  |  | 
Cc1cc(C)c(CNC(=O)c2cc(-c3ccc(CN4CCOCC4)cc3)cc3c2cnn3C2CCCC2)c(=O)[nH]1 [EPZ-5687] |  |  |  | > 10000 |  |  | > 10000 | > 10000 |  |  |  | > 10000 | > 10000
O=C(Nc1cccnc1)N1CCC(Cc2cccc(Oc3ccc(C(F)(F)F)cn3)c2)CC1 [PF-3845] | 3480 |  | 2560 |  |  |  | 1560 |  | 2860 | 2040 |  |  | 
O=C(Cc1ccc(-c2ccc(OCCN3CCOCC3)cc2)cn1)NCc1ccccc1 [KX2-391] |  | 23 | 30.3 | 34.4 | 28.1 | 5.46 | 27.8 | 12.3 |  | 26.1 | 28.1 |  | 
